Data as given in a compilation of properties of binary mixtures (doi:10.1016/j.molliq.2019.01.093).

Test: xn = mol fraction of the nth substance listed
Conditions: 298.1 K, 100 kPa

CC[n+]1ccn(C)c1.F[B-](F)(F)F + CS(C)=O
Conditions | electrical conductivity [S/m]
x1 = 0.01 | 0.25
x1 = 0.017 | 0.69
x1 = 0.021 | 0.67
x1 = 0.032 | 1.04
x1 = 0.051 | 1.24
x1 = 0.066 | 1.53
x1 = 0.097 | 1.68
x1 = 0.15 | 1.84
x1 = 0.286 | 1.67
x1 = 0.483 | 1.48
x1 = 0.782 | 1.13
x1 = 1 | 0.91

CC(=O)[O-].CC[n+]1ccn(C)c1 + CS(C)=O
Conditions | electrical conductivity [S/m]
x1 = 0.01 | 0.16
x1 = 0.029 | 0.48
x1 = 0.044 | 0.63
x1 = 0.055 | 0.73
x1 = 0.082 | 0.83
x1 = 0.165 | 1.04
x1 = 0.237 | 1.07
x1 = 0.313 | 1.01
x1 = 0.415 | 0.93
x1 = 0.513 | 0.81
x1 = 0.813 | 0.5
x1 = 1 | 0.38

CCOP(=O)([O-])OCC.CC[n+]1ccn(C)c1 + CS(C)=O
Conditions | electrical conductivity [S/m]
x1 = 0.006 | 0.1
x1 = 0.013 | 0.19
x1 = 0.04 | 0.48
x1 = 0.059 | 0.57
x1 = 0.074 | 0.62
x1 = 0.119 | 0.68
x1 = 0.169 | 0.64
x1 = 0.233 | 0.57
x1 = 0.32 | 0.5
x1 = 0.544 | 0.28
